This is an account of results in ChEMBL document CHEMBL5463722, “Data for DCP probe BI-5524” (2023).

For orientation: IC50 means the concentration that inhibits the measured activity by half.

Series [1] deals with cGMP-inhibited 3',5'-cyclic phosphodiesterase 3A (Homo sapiens) (UniProt Q14432). The series can be described thus: Inhibitor of PDE3A in the Eurofins Cerep SafetyScreen44 (BI) by HTRF-homogeneous time resolved fluoresce (Cerep_4072). To be noted: Compound concentration 10.0 uM. (In general: In TR-FRET formats the signal depends on donor and acceptor labels being close together.)

The target of series [2] is Prostaglandin G/H synthase 1 (Homo sapiens) (UniProt P23219). The series can be described thus: Inhibitor of COX-1 in the Eurofins Cerep SafetyScreen44 (BI) by Fluorimetry (Cerep_4173). As to conditions: Compound concentration 10.0 uM.
Prostaglandin G/H synthase 1 (Homo sapiens), sequence (P23219 whole entry): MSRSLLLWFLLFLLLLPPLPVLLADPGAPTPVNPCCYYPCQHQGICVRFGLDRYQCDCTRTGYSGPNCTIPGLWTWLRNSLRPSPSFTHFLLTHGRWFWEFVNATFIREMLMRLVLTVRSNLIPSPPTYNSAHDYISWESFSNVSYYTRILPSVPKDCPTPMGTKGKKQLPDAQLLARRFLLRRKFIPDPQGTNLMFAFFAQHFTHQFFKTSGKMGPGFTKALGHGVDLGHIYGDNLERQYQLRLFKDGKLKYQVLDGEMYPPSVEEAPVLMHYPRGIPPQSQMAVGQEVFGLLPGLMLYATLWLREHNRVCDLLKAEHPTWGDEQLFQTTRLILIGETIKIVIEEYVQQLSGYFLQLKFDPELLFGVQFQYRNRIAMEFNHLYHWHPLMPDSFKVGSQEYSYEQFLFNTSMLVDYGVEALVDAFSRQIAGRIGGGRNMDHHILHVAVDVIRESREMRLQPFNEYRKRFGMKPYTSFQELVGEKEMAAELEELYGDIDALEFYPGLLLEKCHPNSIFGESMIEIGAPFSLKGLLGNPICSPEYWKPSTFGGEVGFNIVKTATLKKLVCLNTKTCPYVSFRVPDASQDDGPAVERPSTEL
In series [3] the target is MAO-A (amine oxidase [flavin-containing] A) (Homo sapiens, UniProt P21397). The series can be described thus: Agonist activity in the Eurofins Cerep SafetyScreen44 (BI) against MAO-A_ANTAG by Scintillation counting (Cerep_443). On the set-up: scale not given: the % may be the effect or the level left. As to conditions: rat; compound concentration 10 uM; target entry is the homologue from another species; read-out: % Ctrl.

Series [4] concerns the target Angiotensin-converting enzyme (Homo sapiens) (UniProt P12821). The series can be described thus: Activity against ACE(HU_AMTCH400) in the Eurofins Cerep SafetyScreen44 (BI) by Photometry (Cerep_3441). As to conditions: Compound concentration 10.0 uM.
The target of series [5] is 3',5'-cyclic-AMP phosphodiesterase 4D (Homo sapiens) (UniProt Q08499). The series can be described thus: Inhibitor of PDE4D2 in the Eurofins Cerep SafetyScreen44 (BI) by Scintillation counting (Cerep_4077). As to conditions: Compound concentration 10.0 uM.
The target in series [6] is Sodium-dependent serotonin transporter (Homo sapiens) (UniProt P31645). The series can be described thus: 5-HT transporter Eurofins-Cerep binding assay. On the set-up: ligand concentration 2 nM. As to conditions: Compound concentration 10.0 uM.
Sodium-dependent serotonin transporter (Homo sapiens), sequence (P31645 whole entry, looked up): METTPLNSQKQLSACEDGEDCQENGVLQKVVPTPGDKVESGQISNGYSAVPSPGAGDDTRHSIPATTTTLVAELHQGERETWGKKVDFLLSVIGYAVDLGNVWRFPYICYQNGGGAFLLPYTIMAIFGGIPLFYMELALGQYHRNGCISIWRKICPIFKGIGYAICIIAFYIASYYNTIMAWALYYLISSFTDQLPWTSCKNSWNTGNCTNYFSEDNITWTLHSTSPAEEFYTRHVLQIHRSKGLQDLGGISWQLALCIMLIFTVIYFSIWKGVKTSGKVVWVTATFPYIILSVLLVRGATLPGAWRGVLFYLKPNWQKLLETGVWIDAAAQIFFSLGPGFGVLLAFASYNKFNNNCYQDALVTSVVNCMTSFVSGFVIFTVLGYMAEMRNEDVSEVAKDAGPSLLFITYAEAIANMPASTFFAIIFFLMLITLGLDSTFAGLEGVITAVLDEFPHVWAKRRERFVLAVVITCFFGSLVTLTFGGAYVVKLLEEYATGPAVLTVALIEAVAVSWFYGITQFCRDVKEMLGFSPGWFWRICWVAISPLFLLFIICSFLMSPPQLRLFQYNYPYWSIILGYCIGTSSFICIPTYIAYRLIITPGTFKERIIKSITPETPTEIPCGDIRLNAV
Series [7] concerns the target Cannabinoid receptor 2 (Homo sapiens) (UniProt P34972). The series can be described thus: Activity against CB2/PERIPH/H in the Eurofins Cerep SafetyScreen44 (BI) by Radioactive Assay (Cerep_37). To be noted: Compound concentration 10.0 uM.
Series [8] deals with Kappa-type opioid receptor (Homo sapiens) (UniProt P41145). The series can be described thus: kappa (KOP) Eurofins-Cerep binding assay. As to conditions: Compound concentration 10.0 uM.
In series [9] the target is 5-hydroxytryptamine receptor 5A (Homo sapiens) (UniProt P47898). As to the kind of experiment: Activity against 5HT5A/H in the Eurofins SafetyScreen44 (BI) by Radioactive Assay (Old_Cerep_2). As to conditions: Compound concentration 10.0 uM.
The species named for the next series is Homo sapiens. The series can be described thus: sigma (non-selective) Eurofins-Cerep binding assay. To be noted: Compound concentration 10.0 uM. In kind it is protein assay.
Series [10] has as its target D(3) dopamine receptor (Homo sapiens) (UniProt P35462). As to the kind of experiment: D3 Eurofins-Cerep binding assay. As to conditions: Compound concentration 10.0 uM.
The target in series [11] is Elastase, neutrophil expressed (Cricetulus griseus, UniProt A0A3L7HHY4). The series can be described thus: ELANE inhibitor assay (hamster).
Elastase, neutrophil expressed, sequence (A0A3L7HHY4 whole entry): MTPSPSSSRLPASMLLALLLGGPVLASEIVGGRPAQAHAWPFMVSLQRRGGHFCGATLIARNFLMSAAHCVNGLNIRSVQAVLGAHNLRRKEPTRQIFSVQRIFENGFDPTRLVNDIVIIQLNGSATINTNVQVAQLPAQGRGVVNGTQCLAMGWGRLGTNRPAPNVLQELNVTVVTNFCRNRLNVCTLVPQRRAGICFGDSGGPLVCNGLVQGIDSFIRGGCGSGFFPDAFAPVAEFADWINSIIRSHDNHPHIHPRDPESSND
A further series is filed under the species Rattus norvegicus. The series can be described thus: Cl-channel (GABA-gated) Eurofins-Cerep binding assay. Set-up: ligand concentration 3 nM. To be noted: Compound concentration 10.0 uM.
Series [12] has as its target Galanin receptor type 2 (Homo sapiens) (UniProt O43603). The series can be described thus: Inhibitor of GAL2/H in the Eurofins SafetyScreen44 (BI) by Radioactive Assay (Old_Cerep_22). To be noted: Compound concentration 10.0 uM.
The target in series [13] is Small conductance calcium-activated potassium channel protein 1 (Rattus norvegicus) (UniProt P70606). As to the kind of experiment: Inhibitor of K+/CA+/R in the Eurofins SafetyScreen44 (BI) by Radioactive Assay (Old_Cerep_23). To be noted: Compound concentration 10.0 uM.
Series [14] addresses Neurotensin receptor type 1 (Homo sapiens) (UniProt P30989). As to the kind of experiment: Activity against NT1/H in the Eurofins SafetyScreen44 (BI) by Radioactive Assay (Old_Cerep_27). To be noted: Compound concentration 10.0 uM.
For series [15], the target named is Substance-K receptor (Homo sapiens) (UniProt P21452). As to the kind of experiment: Activity against NK2/H in the Eurofins SafetyScreen44 (BI) by Radioactive Assay (Old_Cerep_25). As to conditions: Compound concentration 10.0 uM.
Substance-K receptor (Homo sapiens), sequence (P21452 whole entry): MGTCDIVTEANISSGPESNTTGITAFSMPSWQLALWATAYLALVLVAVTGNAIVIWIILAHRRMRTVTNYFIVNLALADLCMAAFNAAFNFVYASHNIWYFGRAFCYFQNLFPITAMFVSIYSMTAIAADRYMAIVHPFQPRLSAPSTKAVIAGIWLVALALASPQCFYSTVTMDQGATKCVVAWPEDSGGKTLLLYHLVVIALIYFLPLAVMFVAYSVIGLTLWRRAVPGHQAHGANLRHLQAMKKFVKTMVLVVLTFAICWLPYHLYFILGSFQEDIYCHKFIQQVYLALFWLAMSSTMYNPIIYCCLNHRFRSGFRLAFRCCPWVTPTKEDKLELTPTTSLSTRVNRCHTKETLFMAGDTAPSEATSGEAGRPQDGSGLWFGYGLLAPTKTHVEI
The target of series [16] is Prostaglandin E2 receptor EP2 subtype (Homo sapiens) (UniProt P43116). As to the kind of experiment: Agonist activity in the Eurofins SafetyScreen44 (BI) against EP2(H) by Scintillation counting (Old_Cerep_18). To be noted: Compound concentration 10.0 uM.
Prostaglandin E2 receptor EP2 subtype (Homo sapiens), sequence (P43116 whole entry): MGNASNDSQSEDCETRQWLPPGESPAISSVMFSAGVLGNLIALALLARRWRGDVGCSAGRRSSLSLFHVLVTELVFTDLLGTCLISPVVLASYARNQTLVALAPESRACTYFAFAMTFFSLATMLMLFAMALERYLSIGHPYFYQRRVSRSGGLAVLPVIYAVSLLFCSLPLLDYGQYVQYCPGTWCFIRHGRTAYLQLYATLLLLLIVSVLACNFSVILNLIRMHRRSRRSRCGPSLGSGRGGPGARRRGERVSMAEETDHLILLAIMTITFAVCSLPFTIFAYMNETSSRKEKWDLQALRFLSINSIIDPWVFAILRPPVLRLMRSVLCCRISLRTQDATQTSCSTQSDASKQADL
The target in series [17] is Platelet-derived growth factor receptor (Mus musculus) (UniProt P05622+P26618). As to the kind of experiment: Activity against PDGF/M in the Eurofins SafetyScreen44 (BI) (Old_Cerep_33). Type of series: protein-complex assay. To be noted: Compound concentration 10.0 uM.
The target of series [18] is Substance-P receptor (Homo sapiens) (UniProt P25103). The series can be described thus: NK1 Eurofins-Cerep binding assay. To be noted: Compound concentration 10.0 uM.
Series [19] has as its target B2 bradykinin receptor (Homo sapiens) (UniProt P30411). As to the kind of experiment: Activity against B2/HUM in the Eurofins SafetyScreen44 (BI) by Radioactive Assay (Old_Cerep_8).
The target in series [20] is Adenosine receptor A1 (Homo sapiens) (UniProt P30542). The series can be described thus: A1 Eurofins-Cerep binding assay. On the set-up: ligand concentration 1 nM.
Adenosine receptor A1 (Homo sapiens), sequence (P30542 whole entry): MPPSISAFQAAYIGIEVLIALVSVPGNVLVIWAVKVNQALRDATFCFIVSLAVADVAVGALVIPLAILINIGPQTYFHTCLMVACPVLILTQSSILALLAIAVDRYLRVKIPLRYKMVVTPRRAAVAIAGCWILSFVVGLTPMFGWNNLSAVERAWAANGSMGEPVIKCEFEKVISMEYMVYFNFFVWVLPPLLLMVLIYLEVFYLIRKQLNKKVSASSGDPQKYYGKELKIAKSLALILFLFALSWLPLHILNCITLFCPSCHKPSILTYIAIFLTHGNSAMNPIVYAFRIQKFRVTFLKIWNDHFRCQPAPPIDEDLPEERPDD
In series [21] the target is Muscarinic acetylcholine receptor M5 (Homo sapiens) (UniProt P08912). As to the kind of experiment: M5 Eurofins-Cerep binding assay. As to conditions: Compound concentration 10.0 uM.
Series [22] deals with Adrenergic receptor alpha-2 (Rattus norvegicus) (UniProt P22086+P19328+P22909). As to the kind of experiment: Inhibitor of ALPHA2/NS/R in the Eurofins SafetyScreen44 (BI) by Radioactive Assay (Old_Cerep_6). Type of series: protein assay.
The target of series [23] is L-type calcium channel (Cav1.2, alpha-1C), CA+/VERSI/R (Rattus norvegicus, UniProt P22002). As to the kind of experiment: Inhibitor of CA+/VERSI/R in the Eurofins SafetyScreen44 (BI) by Radioactive Assay (Old_Cerep_11). To be noted: compound concentration 10 uM, read-out: % Ctrl. Set-up: scale not given: the % may be the effect or the level left.
For series [24], the target named is Type-2 angiotensin II receptor (Homo sapiens) (UniProt P50052). The series can be described thus: Activity against AT2/H in the Eurofins SafetyScreen44 (BI) by Radioactive Assay (Old_Cerep_7).
Type-2 angiotensin II receptor (Homo sapiens), sequence (P50052 whole entry): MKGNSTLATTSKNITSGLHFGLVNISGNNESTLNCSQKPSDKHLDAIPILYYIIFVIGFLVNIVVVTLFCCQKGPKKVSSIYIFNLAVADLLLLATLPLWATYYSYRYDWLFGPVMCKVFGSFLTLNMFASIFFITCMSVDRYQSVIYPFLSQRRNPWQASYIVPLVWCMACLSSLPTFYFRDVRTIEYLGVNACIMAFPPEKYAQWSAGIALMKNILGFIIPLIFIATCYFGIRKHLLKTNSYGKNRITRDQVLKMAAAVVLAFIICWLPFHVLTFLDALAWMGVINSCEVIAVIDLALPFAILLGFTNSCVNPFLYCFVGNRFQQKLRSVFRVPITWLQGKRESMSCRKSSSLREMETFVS
Series [25] addresses Pituitary adenylate cyclase-activating polypeptide type I receptor (Homo sapiens) (UniProt P41586). As to the kind of experiment: Activity against PACAP/HU in the Eurofins SafetyScreen44 (BI) by Radioactive Assay (Old_Cerep_31). As to conditions: Compound concentration 10.0 uM.
The target of series [26] is P2X purinoceptor (Oryctolagus cuniculus) (UniProt G1U3D6). As to the kind of experiment: Activity against P2X/R in the Eurofins SafetyScreen44 (BI) by Others (Old_Cerep_29). As to conditions: Rattus norvegicus; Compound concentration 10.0 uM.
Series [27] has as its target Adenosine receptor A3 (Homo sapiens) (UniProt P0DMS8). The series can be described thus: A3 Eurofins-Cerep binding assay. Set-up: ligand concentration 0.15 nM.
The target in series [28] is Somatostatin receptor type 5 (Mus musculus) (UniProt O08858). As to the kind of experiment: Activity against SOMATOS/M in the Eurofins SafetyScreen44 (BI) by Radioactive Assay (Old_Cerep_36). As to conditions: Compound concentration 10.0 uM.
Series [29] deals with Kappa-type opioid receptor (Rattus norvegicus) (UniProt P34975). As to the kind of experiment: Inhibitor of KAPPA/R in the Eurofins SafetyScreen44 (BI) by Radioactive Assay (Old_Cerep_24). As to conditions: Compound concentration 10.0 uM.
Series [30] concerns the target Sodium-dependent serotonin transporter (Homo sapiens) (UniProt P31645). The series can be described thus: Activity against 5HTTRANS/H in the Eurofins SafetyScreen44 (BI) by Radioactive Assay (Old_Cerep_4). To be noted: Compound concentration 10.0 uM.
For series [31], the target named is Galanin receptor type 1 (Homo sapiens) (UniProt P47211). The series can be described thus: Activity against GAL1/H in the Eurofins SafetyScreen44 (BI) by Radioactive Assay (Old_Cerep_21). As to conditions: Compound concentration 10.0 uM.
For series [32], the target named is Endothelin receptor type B (Homo sapiens) (UniProt P24530). As to the kind of experiment: Activity against ETB/H in the Eurofins SafetyScreen44 (BI) by Radioactive Assay (Old_Cerep_20). To be noted: Compound concentration 10.0 uM.
Endothelin receptor type B (Homo sapiens), sequence (P24530 whole entry): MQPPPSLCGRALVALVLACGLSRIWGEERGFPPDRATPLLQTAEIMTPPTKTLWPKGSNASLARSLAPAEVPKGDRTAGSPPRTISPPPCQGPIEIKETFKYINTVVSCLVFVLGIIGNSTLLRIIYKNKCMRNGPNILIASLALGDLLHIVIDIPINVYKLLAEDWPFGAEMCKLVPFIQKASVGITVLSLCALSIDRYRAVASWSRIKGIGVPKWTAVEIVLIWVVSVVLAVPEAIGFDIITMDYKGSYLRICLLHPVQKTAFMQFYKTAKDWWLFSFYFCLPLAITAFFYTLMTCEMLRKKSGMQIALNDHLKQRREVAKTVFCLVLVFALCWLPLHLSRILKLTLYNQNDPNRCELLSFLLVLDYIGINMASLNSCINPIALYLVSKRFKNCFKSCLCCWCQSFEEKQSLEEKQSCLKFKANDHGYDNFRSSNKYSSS
The next series concerns the target Neutrophil elastase (Mus musculus, UniProt Q3UP87). As to the kind of experiment: ELANE inhibitor assay (mouse).

Activity calls are given as the source filed them. The calls are words filed in the database; no cut-off is given here.

B2 bradykinin receptor (Homo sapiens), sequence (P30411 whole entry): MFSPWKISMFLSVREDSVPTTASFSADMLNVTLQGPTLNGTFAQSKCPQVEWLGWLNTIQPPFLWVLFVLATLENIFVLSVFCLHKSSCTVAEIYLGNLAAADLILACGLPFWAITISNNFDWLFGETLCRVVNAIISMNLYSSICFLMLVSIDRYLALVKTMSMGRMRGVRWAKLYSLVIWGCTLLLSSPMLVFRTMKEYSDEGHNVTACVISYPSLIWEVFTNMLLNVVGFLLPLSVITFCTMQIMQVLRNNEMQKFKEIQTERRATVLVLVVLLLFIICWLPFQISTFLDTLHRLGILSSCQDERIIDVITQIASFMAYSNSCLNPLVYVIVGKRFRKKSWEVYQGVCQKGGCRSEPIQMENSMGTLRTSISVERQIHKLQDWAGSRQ
Adenosine receptor A3 (Homo sapiens), sequence (P0DMS8 whole entry): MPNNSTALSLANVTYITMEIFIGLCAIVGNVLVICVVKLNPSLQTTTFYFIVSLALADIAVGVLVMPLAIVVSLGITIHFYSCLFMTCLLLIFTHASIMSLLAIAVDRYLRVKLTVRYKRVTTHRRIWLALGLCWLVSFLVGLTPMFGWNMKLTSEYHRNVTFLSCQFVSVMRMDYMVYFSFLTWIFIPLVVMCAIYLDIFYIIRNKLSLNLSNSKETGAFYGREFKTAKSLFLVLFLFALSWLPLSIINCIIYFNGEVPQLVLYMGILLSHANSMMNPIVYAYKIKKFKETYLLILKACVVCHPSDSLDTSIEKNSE
Cannabinoid receptor 2 (Homo sapiens), sequence (P34972 whole entry): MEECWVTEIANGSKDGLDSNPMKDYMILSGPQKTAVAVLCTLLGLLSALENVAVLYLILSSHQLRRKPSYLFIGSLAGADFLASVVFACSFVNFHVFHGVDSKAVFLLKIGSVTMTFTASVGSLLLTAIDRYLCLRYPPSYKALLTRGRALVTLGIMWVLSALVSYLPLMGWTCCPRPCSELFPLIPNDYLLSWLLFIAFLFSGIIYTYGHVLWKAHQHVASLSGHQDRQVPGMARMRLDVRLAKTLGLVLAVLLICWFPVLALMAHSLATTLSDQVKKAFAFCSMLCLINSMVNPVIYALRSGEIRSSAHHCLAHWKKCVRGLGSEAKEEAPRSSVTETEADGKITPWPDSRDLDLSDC
Neutrophil elastase, sequence (Q3UP87 whole entry): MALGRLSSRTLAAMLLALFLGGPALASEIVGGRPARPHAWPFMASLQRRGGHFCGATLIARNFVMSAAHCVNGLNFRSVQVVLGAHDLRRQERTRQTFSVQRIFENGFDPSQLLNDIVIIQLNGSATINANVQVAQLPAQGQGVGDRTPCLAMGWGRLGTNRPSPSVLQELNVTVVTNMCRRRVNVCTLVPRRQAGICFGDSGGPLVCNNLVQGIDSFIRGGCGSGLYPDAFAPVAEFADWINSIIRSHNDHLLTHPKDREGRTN

`CC(C)(O)CNC(=O)N1C(=O)N(c2cccc(C(F)(F)F)c2)C2=C(C(=O)CC2)[C@@H]1c1ccc(C#N)cc1`: the residual activity is 97% in [1]; 105% in [2]; 98% in [4]; 114% in series [5]; 105% in series [6]; 83% in series [7]. The residual activity in series [8] is 94%. In series [3], the activity at 10 µM is given as 101% (not active).
Take `CC(C)(O)CNC(=O)N1C(=O)N(c2cccc(C(F)(F)F)c2)C2=C(C(=O)CC2)[C@H]1c1ccc(C#N)cc1`: the residual activity is 98% in series [9]; 72% in the series filed under Homo sapiens; 96% in series [10]; 90% in the series filed under Rattus norvegicus; 114% in series [12]; 97% in [13]. Besides, the residual activity in series [14] is 114%; in [15] it was 103%; in series [16], 93%; in series [17], 103%; in series [18], 115%; in series [19] (Compound concentration 10.0 uM), 107%. In addition, the residual activity is 97% in series [19] (Compound concentration 30.0 uM); 107% in [20] (Compound concentration 10.0 uM); 102% in [20] (Compound concentration 30.0 uM); 92% in series [21]; 93% in series [22] (Compound concentration 10.0 uM); 98% in series [22] (Compound concentration 30.0 uM). Further, the residual activity in series [24] (Compound concentration 10.0 uM) was 92%; in series [24] (Compound concentration 30.0 uM) it was 114%; in [25], 122%; in series [26], 103%; in [27] (Compound concentration 10.0 uM), 92%; in [27] (Compound concentration 30.0 uM) it was 80%. Moreover, the residual activity was 114% in [28]; 65% in series [29]; 108% in [30]; 121% in series [31]; 92% in series [32]. Besides, the IC50 is 4 nM (active) in series [11] and 12 nM (active) on Neutrophil elastase. Also, the activity at 10 µM in [23] was 102% (not active).
